# Assay results taken from US11484525B2 (priority 2015, dated 2022).
# Entries after “also recorded” stand apart in the source; their conditions may differ.
# How the values were obtained:
# μOR [1] = target: T1, μOR (Homo sapiens (Human), UniProt P35372); format: cell-based
# MOR = MOR (Homo sapiens (Human), UniProt P35372); experiment: MOR functional annotations (method not given); conditions: for MOR agonist (potency annotation under structure): Table 4 caption line; for functional classification given with the label: binding table, compound cell
# hMOR + Gqi5 = hMOR + Gqi5 (Homo sapiens (Human), UniProt P35372); experiment: IP accumulation assay hMOR + Gqi5; format: cell-based; conditions: % morphine, at 10 μM
# μOR [2] = target: T1, μOR; experiment: Radioligand competition binding vs 3H-diprenorphine at μOR
# κOR [3] = target: T2, κOR (Homo sapiens (Human), UniProt P41145); experiment: Radioligand binding at κOR (PDSP); conditions: Table 2; no Ki, below 50%
# μOR [4] = target: T1, μOR; experiment: Receptor internalization (PathHunter, U2OS); format: cell-based; conditions: compared to DAMGO and morphine
# [5] = Metabolism by mouse liver microsomes; format: in vitro ADME; conditions: signaling experiments with resulting metabolite pool
# nociceptin receptor = nociceptin receptor (Homo sapiens (Human), UniProt P41146); experiment: Gi/o Glosensor assay at nociceptin receptor; format: cell-based
# κOR [6] = target: T2, κOR; experiment: Gi/o Glosensor assay at κOR; format: cell-based
# μOR [7] = target: T1, μOR; experiment: β-arrestin2 recruitment by BRET with GRK2 co-expression; format: cell-based
# μOR [8] = target: T1, μOR; experiment: Calcium release (FLIPR); format: cell-based
# Protocol: Calcium release was measured using a FLIPR^TETRA fluorescence imaging plate reader (Molecular Devices). Calcium release experiments were run in parallel to Gi/o Glosensor experiments with the same HEKT cells transfected with μOR, except cells for FLIPR were plated in poly-lysine coated 384-well black clear bottom cell culture plates. […] Dye was incubated for 1 hour at 37° C. Afterwards, cells were equilibrated to room temperature, and fluorescence in each well was read for the initial 10 seconds to establish a baseline. Afterwards, 10 μL of drug (3×) was added per well and the maximum-fold increase in fluorescence was determined as fold-over-baseline. Drug solutions used for the FLIPR assay were exactly the same as used for Gi/o Glosensor experiments. To activate endogenous Gq-coupled receptors as a positive control for calcium release, TFLLR-NH2 (10 μM, PAR-1 selective agonist) was used.
# μOR [9] = target: T1, μOR; experiment: β-arrestin2 recruitment by BRET without GRK2; format: cell-based; conditions: no GRK2
# mice [10] = experiment: Formalin injection assay; conditions: mouse, in vivo
# C57BL/6J mice [11] = experiment: Tail-flick analgesia; conditions: mouse, in vivo
# [12] = tested on: Oprm1−/− and wild-type C57Bl/6J mice; experiment: Hot plate: affective/reflexive subcategorization and μOR knockout mice; format: in vivo, mouse
# C57BL/6J mice [13] = experiment: Hot-plate analgesia; format: in vivo, mouse
# [14] = Pharmacokinetics, serum and brain levels; conditions: mouse, in vivo
# Protocol: Studies were performed by the Preclinical Therapeutics Core and the Drug Studies Unit at the University of California San Francisco. […] All studies were performed with approved mouse protocols from the institutional animal care and use committees.
# μOR [15] = target: T1, μOR; experiment: β-arrestin recruitment, PathHunter enzyme complementation (OPRM1 CHO-K1); format: cell-based
# μOR [16] = target: T1, μOR; experiment: BRET-based cAMP accumulation assay (CAMYEL) for SAR of PZM21-29; format: cell-based; conditions: Gi/o signaling, FIG. 4 analogs
# μOR [17] = target: T1, μOR; experiment: Radioligand depletion assay for irreversible binding, wild-type μOR
# mice [18] = experiment: Whole body plethysmography (respiration); conditions: equianalgesic doses: PZM21 40 mg/kg, TRV130 […], morphine 10 mg/kg
structure (smiles),measurement,setting,value
"C[C@H](Cc1ccsc1)NC(=O)NC[C@H](Cc1ccc(O)cc1)N(C)C [(S,R)-21, 1-[(S)-2-(Dimethylamino)-3-(4-hydroxyphenyl)propyl]-3-((R)-1-(thiophen-3-yl)propan-2-yl)urea]",Gi/o activation / μOR agonist activity,μOR [1],more potent partial agonist of the μOR
"C[C@@H](Cc1ccsc1)NC(=O)NC[C@H](Cc1ccccc1)N(C)C [(S,S)-12, 1-[(S)-2-(Dimethylamino)-3-phenylpropyl]-3-[(S)-1-(thiophen-3-yl)propan-2-yl]urea]",MOR agonist (potency annotation under structure),MOR,"(S,S)-12 12 nM MOR agonist"
"Cc1cc(O)cc(C)c1C[C@@H](CNC(=O)N[C@H](C)Cc1ccsc1)N(C)C [BD 131LR, 1-((S)-2-(dimethylamino)-3-(4-hydroxy-2,6-dimethylphenyl)propyl)-3-((R)-1-(thiophen-3-yl)propan-2-yl)urea]",hMOR + Gqi5 IP accumulation assay efficacy a @ 10 μM,hMOR + Gqi5,@ 10 μMa: 10%
CC(C)[C@H](CNC(=O)c1ccc([N+](=O)[O-])s1)N1CCc2ccccc2C1 [Compound 8],Gi/o activation / μOR agonist activity,μOR [1],activated Gi/o
O=C(Cc1cn2ccccc2n1)NCC1(c2ccccc2)CCC1 [Compound 9],"μOR Ki column, given as <50%",μOR [2],<50%
CN(Cc1nnc(C2CC2)n1C)C(=O)NC[C@@H](Cc1ccccc1)N(C)C [Compound 10],"κOR Ki, given as <50%",κOR [3],<50%
CN(C)[C@@H](CNC(=O)NC[C@@H](O)c1cnn(C)c1)Cc1ccccc1 [Compound 11],"κOR Ki, given as <50%",κOR [3],<50%
Cc1nc(CNC(=O)NC[C@@H](Cc2ccccc2)N(C)C)sc1C [Compound 15],"κOR Ki, given as <50%",κOR [3],<50%
"CN(C)[C@H](CNC(=O)NCCc1ccsc1)Cc1ccc(O)cc1 [DD 16, (S)-1-(2-(dimethylamino)-3-(4-hydroxyphenyl)propyl)-3-(2-(thiophen-3-yl)ethyl)urea]",MOR agonist (potency annotation under structure),MOR,(23) 58 nM MOR agonist
"Cc1cc(O)cc(C)c1C[C@@H](CNC(=O)NCCc1ccsc1)N(C)C [DD 34L, (S)-1-(2-(dimethylamino)-3-(4-hydroxy-2,6-dimethylphenyl)propyl)-3-(2-(thiophen-3-yl)ethyl)urea]",functional classification given with the label,MOR,DD 34L (ANTAGONIST) [drawing 449]
"Cc1cc(O)cc(C)c1C[C@@H](CNC(=O)NCCN1C(=O)C=CC1=O)N(C)C [DD 144, (S)-1-(2-(dimethylamino)-3-(4-hydroxy-2,6-dimethylphenyl)propyl)-3-(2-(2,5-dioxo-2,5-dihydro-1H-pyrrol-1-yl)ethyl)urea]",functional classification given with the label,MOR,"DD 144 (ANTAGONIST, Covalent) [drawing 455]"
"C[C@@H](Cc1ccsc1)NC(=O)NC[C@H](Cc1ccc(O)cc1)N(C)C [PZM21, 1-[(S)-2-(Dimethylamino)-3-(4-hydroxyphenyl)propyl]-3-((S)-1-(thiophen-3-yl)propan-2-yl)urea]",μOR internalization,μOR [4],minimal level
same,μOR activation by metabolite pool,[5],no evidence of a metabolite with more potent activation of the μOR
same,nociceptin receptor agonist activity,nociceptin receptor,no detectable
same,κOR agonist activity,κOR [6],no detectable
same,mode of action at κOR,κOR [6]; antagonist mode,antagonist
same,arrestin recruitment with over-expressed GRK2,μOR [7],weak arrestin recruitment efficacy; also recorded: we observe arrestin recruitment
same,calcium release,μOR [8],no activity
same,β-arrestin2 recruitment in the absence of GRK2,μOR [9],no β-arrestin2 recruitment
same,formalin injection nociception,mice [10],active
same,tail-flick analgesia,C57BL/6J mice [11],no activity; also recorded: no analgesic effect
same,analgesic response in μOR knockout mice,"[12]; Oprm1−/− mice, hot plate",completely ablates
same,affective vs reflexive component of pain,[12]; hot plate 52.5° C.,only modulates the affective component of pain; also recorded: solely confers analgesia to the affective component of pain
same,hot-plate % MPE,"C57BL/6J mice [13]; 15 minutes after highest dose tested, s.c.",87%
same,hot-plate analgesia,"C57BL/6J mice [13]; mouse, in vivo",dose-dependent analgesia
same,blood brain barrier penetration,[14],substantial fraction
same,β-arrestin2 recruitment in PathHunter assay,μOR [15],undetectable; also recorded: minimal recruitment; also recorded: no detectable
"CN(CC1CC1)[C@H](CNC(=O)NCCc1ccccc1)Cc1ccc(O)cc1 [PZM27, (S)-1-(2-((Cyclopropylmethyl)(methyl)amino)-3-(4-hydroxyphenyl)propyl)-3-phenethylurea×CF3COOH]",efficacy and potency as agonist,μOR [16],decreased efficacy
same,loss of potency relative to parent,μOR [16],30 fold
"CN(C=O)[C@H](CNC(=O)NCCc1ccccc1)Cc1ccc(O)cc1 [PZM28, (S)—N-(1-(4-Hydroxyphenyl)-3-(3-phenethylureido)propan-2-yl)-N-methylformamide]",loss of potency relative to parent,μOR [16],1000 fold
"CN(C)[C@H](CNC(=O)NCCc1cn(CCSSCCN=[N+]=[N-])nn1)Cc1ccc(O)cc1 [PZM29, (S)-1-(2-(1-(2-((2-Azidoethyl)disulfanyl)ethyl)-1H-1,2,3-triazol-4-yl)ethyl)-3-(2-(dimethylamino)-3-(4-hydroxyphenyl)propyl)urea×CF3COOH]",irreversible binding to wild-type μOR,μOR [17],not the wild-type receptor
same,efficacy and potency as agonist,μOR [16],retains its efficacy as an agonist
"COc1ccsc1CNCC[C@@]1(c2ccccn2)CCOC2(CCCC2)C1 [TRV130, reference compound]",respiration frequency / respiratory depression,mice [18],significantly depresses respiration at 15 minutes
same,arrestin recruitment with over-expressed GRK2,μOR [7],we observe arrestin recruitment
same,β-arrestin2 recruitment in the absence of GRK2,μOR [9],no β-arrestin2 recruitment
